Laboratory results as given in ChEMBL document CHEMBL1201862, “PubChem BioAssay data set” (2004).
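Step 1: Grow cells in 96-well plates. Step 2: Expose to compound for 48 hours at 5 concentrations. Step 3: Interpolate endpoints linearly; if unreached, use highest concentration. Abbreviation: GI50, concentration required for 50% inhibition of growth.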 Calls of active or inactive are those of the source. Rule as the data show it: active = GI50 up to about 1.1 µM and inactive = higher.

Experiments:
Experiment in all cases: NCI anticancer screen, dose series, 48 h
SR = test system: SR
A498 = test system: A498
OVCAR-5 = test system: OVCAR-5
HOP-62 = test system: HOP-62
SK-MEL-2 = test system: SK-MEL-2
ACHN = test system: ACHN
NCI-H23 = test system: NCI-H23
NCI-H226 = test system: NCI-H226
MDA-N = test system: MDA-N
HT-29 = test system: HT-29
KM12 = test system: KM12
MDA-MB-231 = test system: MDA-MB-231
Malme-3M = test system: Malme-3M
SF-295 = test system: SF-295
SK-OV-3 = test system: SK-OV-3
OVCAR-3 = test system: OVCAR-3
HCT-116 = test system: HCT-116
UACC-257 = test system: UACC-257
SK-MEL-28 = test system: SK-MEL-28
TK-10 = test system: TK-10
COLO 205 = test system: COLO 205
LOX IMVI = test system: LOX IMVI
MDA-MB-435 = test system: MDA-MB-435
786-0 = test system: 786-0
SNB-75 = test system: SNB-75
PC-3 = test system: PC-3
DU-145 = test system: DU-145
CCRF-CEM = test system: CCRF-CEM
A549 = test system: A549
T47D = test system: T47D
RPMI-8226 = test system: RPMI-8226
HL-60 = test system: HL-60
UACC-62 = test system: UACC-62
SF-268 = test system: SF-268
SNB-19 = test system: SNB-19
SN12C = test system: SN12C
OVCAR-4 = test system: OVCAR-4
NCI/ADR-RES = test system: NCI/ADR-RES
HCC 2998 = test system: HCC 2998
EKVX = test system: EKVX
IGROV-1 = test system: IGROV-1
Hs-578T = test system: Hs-578T
SF-539 = test system: SF-539
HCT-15 = test system: HCT-15
CAKI-1 = test system: CAKI-1
UO-31 = test system: UO-31
OVCAR-8 = test system: OVCAR-8
NCI-H522 = test system: NCI-H522
K562 = test system: K562
RXF 393 = test system: RXF 393
M14 = test system: M14
NCI-H460 = test system: NCI-H460
SW-620 = test system: SW-620
MOLT-4 = test system: MOLT-4
SK-MEL-5 = test system: SK-MEL-5
MCF7 = test system: MCF7

C/C=C/C(C/C=C(\C)CO[Si](C)(C)C(C)(C)C)O[Si](C)(C)C(C)(C)C (stereo unspecified)
GI50 (SR): > 100 µM (inactive)
GI50 (A498): > 100 µM (inactive)
GI50 (OVCAR-5): > 100 µM (inactive)
GI50 (HOP-62): > 100 µM (inactive)
GI50 (SK-MEL-2): > 100 µM (inactive)
GI50 (ACHN): > 100 µM (inactive)
GI50 (NCI-H23): > 100 µM (inactive)
GI50 (NCI-H226): > 100 µM (inactive)
GI50 (MDA-N): > 100 µM (inactive)
GI50 (HT-29): > 100 µM (inactive)
GI50 (KM12): > 100 µM (inactive)
GI50 (MDA-MB-231): > 100 µM (inactive)
GI50 (Malme-3M): > 100 µM (inactive)
GI50 (SF-295): > 100 µM (inactive)
GI50 (SK-OV-3): > 100 µM (inactive)
GI50 (OVCAR-3): > 100 µM (inactive)
GI50 (HCT-116): > 100 µM (inactive)
GI50 (UACC-257): > 100 µM (inactive)
GI50 (SK-MEL-28): > 100 µM (inactive)
GI50 (TK-10): > 100 µM (inactive)
GI50 (COLO 205): > 100 µM (inactive)
GI50 (LOX IMVI): > 100 µM (inactive)
GI50 (MDA-MB-435): > 100 µM (inactive)
GI50 (786-0): > 100 µM (inactive)
GI50 (SNB-75): > 100 µM (inactive)
GI50 (PC-3): > 100 µM (inactive)
GI50 (DU-145): > 100 µM (inactive)
GI50 (CCRF-CEM): > 100 µM (inactive)
GI50 (A549): > 100 µM (inactive)
GI50 (T47D): > 100 µM (inactive)
GI50 (RPMI-8226): > 100 µM (inactive)
GI50 (HL-60): > 100 µM (inactive)
GI50 (UACC-62): > 100 µM (inactive)
GI50 (SF-268): > 100 µM (inactive)
GI50 (SNB-19): > 100 µM (inactive)
GI50 (SN12C): > 100 µM (inactive)
GI50 (OVCAR-4): > 100 µM (inactive)
GI50 (NCI/ADR-RES): > 100 µM (inactive)
GI50 (HCC 2998): > 100 µM (inactive)
GI50 (EKVX): > 100 µM (inactive)
GI50 (IGROV-1): > 100 µM (inactive)
GI50 (Hs-578T): > 100 µM (inactive)
GI50 (SF-539): > 100 µM (inactive)
GI50 (HCT-15): > 100 µM
GI50 (CAKI-1): > 100 µM (inactive)
GI50 (UO-31): > 100 µM (inactive)
GI50 (OVCAR-8): > 100 µM (inactive)
GI50 (NCI-H522): > 100 µM (inactive)
GI50 (K562): > 100 µM (inactive)
GI50 (RXF 393): > 100 µM (inactive)
GI50 (M14): > 100 µM (inactive)
GI50 (NCI-H460): > 100 µM (inactive)
GI50 (SW-620): > 100 µM (inactive)
GI50 (MOLT-4): > 100 µM (inactive)
GI50 (SK-MEL-5): > 100 µM (inactive)
GI50 (MCF7): > 100 µM (inactive)
